# Measured values from PubChem BioAssay AID1918932 (Molecular Pharmacology Branch, DTP, NCI, 2023).
# System: 171881-019-R-J1-PDC complex spheroid viability
# Experiment: Anticancer human tumor 171881-019-R-J1-PDC patient-derived invasive breast carcinoma cell line growth inhibition
# Conditions: for IC50: curve of first compound; for viability, T/C: stronger effect = lower value
# Outline: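 Multicellular complex spheroids of tumor cells with human endothelial cells (HUVEC) and mesenchymal stem cells; the LSD1 inhibitor iadademstat was combined with standard-of-care or investigational agents. Top concentration at or near clinical Cmax, half-log dilutions; final DMSO ≤0.25%.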
# [1] = second compound 0.1 µM, first compound 0.0316 µM
# [2] = second compound 0.1 µM, first compound 0.1 µM
# [3] = second compound 0.1 µM, first compound 0.316 µM
# [4] = second compound 0.1 µM, first compound 1 µM
# [5] = second compound 0.1 µM, first compound 3.16 µM
# [6] = second compound 0.1 µM, first compound 10 µM
# [7] = second compound 0.316 µM, first compound 0.0316 µM
# [8] = second compound 0.316 µM, first compound 0.1 µM
# [9] = second compound 0.316 µM, first compound 0.316 µM
# [10] = second compound 0.316 µM, first compound 1 µM
# [11] = second compound 0.316 µM, first compound 3.16 µM
# [12] = second compound 0.316 µM, first compound 10 µM
# [13] = second compound 1 µM, first compound 0.0316 µM
# [14] = second compound 1 µM, first compound 0.1 µM
# [15] = second compound 1 µM, first compound 0.316 µM
# [16] = second compound 1 µM, first compound 1 µM
# [17] = second compound 1 µM, first compound 3.16 µM
# [18] = second compound 1 µM, first compound 10 µM
# [19] = second compound 3.16 µM, first compound 0.0316 µM
# [20] = second compound 3.16 µM, first compound 0.1 µM
# [21] = second compound 3.16 µM, first compound 0.316 µM
# [22] = second compound 3.16 µM, first compound 1 µM
# [23] = second compound 3.16 µM, first compound 3.16 µM
# [24] = second compound 3.16 µM, first compound 10 µM
# [25] = second compound 10 µM, first compound 0.0316 µM
# [26] = second compound 10 µM, first compound 0.1 µM
# [27] = second compound 10 µM, first compound 0.316 µM
# [28] = second compound 10 µM, first compound 1 µM
# [29] = second compound 10 µM, first compound 3.16 µM
# [30] = second compound 10 µM, first compound 10 µM
# 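Note: spheroids exposed to agents for 7 days after 3 days growth.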
structure (smiles),measurement,setting,value
CC1(C)CCC(CN2CCN(c3ccc(C(=O)NS(=O)(=O)c4ccc(NCC5CCOCC5)c([N+](=O)[O-])c4)c(Oc4cnc5[nH]ccc5c4)c3)CC2)=C(c2ccc(Cl)cc2)C1 + NC1CC1c1ccc(-c2cccc(O)c2)cc1,IC50,second compound 0.1 µM,1.41 µM
same,IC50,second compound 0.316 µM,1.49 µM
same,IC50,second compound 1 µM,1.45 µM
same,IC50,second compound 3.16 µM,1.45 µM
same,IC50,second compound 10 µM,1.3 µM
same,"viability, T/C",[1],101%
same,"viability, T/C",[2],97.9%
same,"viability, T/C",[3],87.8%
same,"viability, T/C",[4],63%
same,"viability, T/C",[5],21.7%
same,"viability, T/C",[6],9.08%
same,"viability, T/C",[7],103%
same,"viability, T/C",[8],95.7%
same,"viability, T/C",[9],92.3%
same,"viability, T/C",[10],64.4%
same,"viability, T/C",[11],22.9%
same,"viability, T/C",[12],4.28%
same,"viability, T/C",[13],103%
same,"viability, T/C",[14],102%
same,"viability, T/C",[15],88.4%
same,"viability, T/C",[16],64.2%
same,"viability, T/C",[17],22.3%
same,"viability, T/C",[18],4%
same,"viability, T/C",[19],94.5%
same,"viability, T/C",[20],92.7%
same,"viability, T/C",[21],86.3%
same,"viability, T/C",[22],63.2%
same,"viability, T/C",[23],22.8%
same,"viability, T/C",[24],4.22%
same,"viability, T/C",[25],84.5%
same,"viability, T/C",[26],82.5%
same,"viability, T/C",[27],77.1%
same,"viability, T/C",[28],59%
same,"viability, T/C",[29],21.2%
same,"viability, T/C",[30],3.96%
CC1COCCN1c1cc(-c2ccnn2C)c2ccnc(-c3ccn[nH]3)c2n1 (stereo not given) + NC1CC1c1ccc(-c2cccc(O)c2)cc1,IC50,second compound 0.1 µM,0.00607 µM
same,IC50,second compound 0.316 µM,0.00476 µM
same,IC50,second compound 1 µM,0.00438 µM
same,IC50,second compound 3.16 µM,0.00657 µM
same,IC50,second compound 10 µM,0.00498 µM
same,"viability, T/C","second compound 0.1 µM, first compound 0.00316 µM",54.6%
same,"viability, T/C","second compound 0.1 µM, first compound 0.01 µM",46.5%
same,"viability, T/C",[1],23.1%
same,"viability, T/C",[2],9.09%
same,"viability, T/C",[3],6.72%
same,"viability, T/C",[4],6.42%
same,"viability, T/C","second compound 0.316 µM, first compound 0.00316 µM",53.6%
same,"viability, T/C","second compound 0.316 µM, first compound 0.01 µM",43.5%
same,"viability, T/C",[7],23.6%
same,"viability, T/C",[8],9.96%
same,"viability, T/C",[9],6.7%
same,"viability, T/C",[10],5.87%
same,"viability, T/C","second compound 1 µM, first compound 0.00316 µM",51.1%
same,"viability, T/C","second compound 1 µM, first compound 0.01 µM",47%
same,"viability, T/C",[13],25.3%
same,"viability, T/C",[14],9.83%
same,"viability, T/C",[15],6.55%
same,"viability, T/C",[16],5.67%
same,"viability, T/C","second compound 3.16 µM, first compound 0.00316 µM",56%
same,"viability, T/C","second compound 3.16 µM, first compound 0.01 µM",46.4%
same,"viability, T/C",[19],23.8%
same,"viability, T/C",[20],8.53%
same,"viability, T/C",[21],5.95%
same,"viability, T/C",[22],5.45%
same,"viability, T/C","second compound 10 µM, first compound 0.00316 µM",54.1%
same,"viability, T/C","second compound 10 µM, first compound 0.01 µM",44%
same,"viability, T/C",[25],22.4%
same,"viability, T/C",[26],12.8%
same,"viability, T/C",[27],7.13%
same,"viability, T/C",[28],6.24%
Nc1ccccc1NC(=O)c1ccc(CNC(=O)OCc2cccnc2)cc1 + NC1CCC(NC2CC2c2ccccc2)CC1,IC50,second compound 0.1 µM,0.263 µM
same,IC50,second compound 0.316 µM,0.252 µM
same,IC50,second compound 1 µM,0.277 µM
same,IC50,second compound 3.16 µM,0.288 µM
same,IC50,second compound 10 µM,0.325 µM
same,"viability, T/C","second compound 0.1 µM, first compound 0.00949 µM",86.6%
same,"viability, T/C","second compound 0.1 µM, first compound 0.03 µM",85.5%
same,"viability, T/C","second compound 0.1 µM, first compound 0.0949 µM",117%
same,"viability, T/C","second compound 0.1 µM, first compound 0.3 µM",43.9%
same,"viability, T/C","second compound 0.1 µM, first compound 0.949 µM",2.1%
same,"viability, T/C","second compound 0.1 µM, first compound 3 µM",0.32%
same,"viability, T/C","second compound 0.316 µM, first compound 0.00949 µM",89.2%
same,"viability, T/C","second compound 0.316 µM, first compound 0.03 µM",98.6%
same,"viability, T/C","second compound 0.316 µM, first compound 0.0949 µM",119%
same,"viability, T/C","second compound 0.316 µM, first compound 0.3 µM",40.8%
same,"viability, T/C","second compound 0.316 µM, first compound 0.949 µM",2.42%
same,"viability, T/C","second compound 0.316 µM, first compound 3 µM",0.34%
same,"viability, T/C","second compound 1 µM, first compound 0.00949 µM",91.3%
same,"viability, T/C","second compound 1 µM, first compound 0.03 µM",104%
same,"viability, T/C","second compound 1 µM, first compound 0.0949 µM",116%
same,"viability, T/C","second compound 1 µM, first compound 0.3 µM",46%
same,"viability, T/C","second compound 1 µM, first compound 0.949 µM",1.97%
same,"viability, T/C","second compound 1 µM, first compound 3 µM",0.29%
same,"viability, T/C","second compound 3.16 µM, first compound 0.00949 µM",87.8%
same,"viability, T/C","second compound 3.16 µM, first compound 0.03 µM",96%
same,"viability, T/C","second compound 3.16 µM, first compound 0.0949 µM",115%
same,"viability, T/C","second compound 3.16 µM, first compound 0.3 µM",48.1%
same,"viability, T/C","second compound 3.16 µM, first compound 0.949 µM",2.3%
same,"viability, T/C","second compound 3.16 µM, first compound 3 µM",0.22%
same,"viability, T/C","second compound 10 µM, first compound 0.00949 µM",92.5%
same,"viability, T/C","second compound 10 µM, first compound 0.03 µM",109%
same,"viability, T/C","second compound 10 µM, first compound 0.0949 µM",126%
same,"viability, T/C","second compound 10 µM, first compound 0.3 µM",53.6%
same,"viability, T/C","second compound 10 µM, first compound 0.949 µM",2.32%
same,"viability, T/C","second compound 10 µM, first compound 3 µM",0.27%
CC(C)c1c(-c2ccccc2)nc2c(C#N)c[nH]n2c1=O + NC1CCC(NC2CC2c2ccccc2)CC1,IC50,second compound 0.1 µM,> 10 µM
same,IC50,second compound 0.316 µM,> 10 µM
same,IC50,second compound 1 µM,> 10 µM
same,IC50,second compound 3.16 µM,> 10 µM
same,IC50,second compound 10 µM,> 10 µM
same,"viability, T/C",[1],89.7%
same,"viability, T/C",[2],75.8%
same,"viability, T/C",[3],82.7%
same,"viability, T/C",[4],92.2%
same,"viability, T/C",[5],82.9%
same,"viability, T/C",[6],97.8%
same,"viability, T/C",[7],90.7%
same,"viability, T/C",[8],93.3%
same,"viability, T/C",[9],82.6%
same,"viability, T/C",[10],96.1%
same,"viability, T/C",[11],94%
same,"viability, T/C",[12],91.6%
same,"viability, T/C",[13],93.8%
same,"viability, T/C",[14],81.3%
same,"viability, T/C",[15],85.5%
same,"viability, T/C",[16],100%
same,"viability, T/C",[17],81.5%
same,"viability, T/C",[18],91.2%
same,"viability, T/C",[19],96.1%
same,"viability, T/C",[20],90.5%
same,"viability, T/C",[21],94.3%
same,"viability, T/C",[22],80.3%
same,"viability, T/C",[23],101%
same,"viability, T/C",[24],97.3%
same,"viability, T/C",[25],87.2%
same,"viability, T/C",[26],90.4%
same,"viability, T/C",[27],77.3%
same,"viability, T/C",[28],92.6%
same,"viability, T/C",[29],93.4%
same,"viability, T/C",[30],90.4%
